The values that follow come from ChEMBL document CHEMBL1201862, “PubChem BioAssay data set” (2004).

Calls of active or inactive are those of the source.

The target of experiment [1] is Signal transducer and activator of transcription 1-alpha/beta (Homo sapiens, UniProt P42224). The experiment in a line: inhibition of STAT1 reporter activity – cell-based, NIH 3T3, luciferase reporter, dose response (AID 1396). The experiment is classed as functional. (Reporter assays use an easily measured gene product as a stand-in for the process of interest.)
Signal transducer and activator of transcription 1-alpha/beta, sequence (P42224 whole entry): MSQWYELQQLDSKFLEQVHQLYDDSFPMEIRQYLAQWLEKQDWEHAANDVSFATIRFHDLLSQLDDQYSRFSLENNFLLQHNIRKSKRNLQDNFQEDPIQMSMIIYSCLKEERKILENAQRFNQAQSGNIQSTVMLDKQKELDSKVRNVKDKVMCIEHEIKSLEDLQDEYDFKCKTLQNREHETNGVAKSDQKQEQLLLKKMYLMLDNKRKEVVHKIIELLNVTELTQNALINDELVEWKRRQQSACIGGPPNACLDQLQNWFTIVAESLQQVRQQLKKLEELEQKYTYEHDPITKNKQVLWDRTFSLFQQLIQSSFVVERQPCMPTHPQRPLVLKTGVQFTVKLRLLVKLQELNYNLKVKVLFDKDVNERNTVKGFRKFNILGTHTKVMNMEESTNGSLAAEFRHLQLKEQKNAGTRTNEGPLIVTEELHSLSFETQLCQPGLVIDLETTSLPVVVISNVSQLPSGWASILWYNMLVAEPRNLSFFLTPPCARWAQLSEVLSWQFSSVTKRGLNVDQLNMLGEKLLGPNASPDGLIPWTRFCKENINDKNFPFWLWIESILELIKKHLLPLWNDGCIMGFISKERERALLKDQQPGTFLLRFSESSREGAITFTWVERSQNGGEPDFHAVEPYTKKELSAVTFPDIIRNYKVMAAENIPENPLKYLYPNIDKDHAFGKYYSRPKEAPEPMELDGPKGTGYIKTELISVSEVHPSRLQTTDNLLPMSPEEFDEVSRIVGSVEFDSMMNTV
A short description of experiment [2]: inhibitors acting on PAX2 in cells – cell-based, plate reader, dry powder samples, selectivity assay for PAX8 inhibitor project, dose response (AID 743048).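 Note: HEK293 cells carrying a WT1 promoter luciferase reporter driven by expressed Pax2; potency is for inhibition of Pax2 driven reporter signal.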 The experiment is classed as functional.
Experiment [3] is described as follows: intracellular Trypanosoma cruzi inhibitors in host cells – cell-based, plate reader, cherry-pick samples, set 3, dose response (AID 651818).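 Note: compounds incubated with infected cells for about four days.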 The experiment is classed as functional.
Experiment [4] is described as follows: PAX8-dependent cell viability loss – plate reader, dry powder, dose response (AID 743049). In kind it is functional, cell-based.
Experiment [5] in a line: OV-90 cell viability loss – plate reader, dry powder, SA8, PAX8 inhibitor project, dose response (AID 743149). In kind it is functional, cell-based.
Experiment [6] is described as follows: OVCAR4 cell viability loss – plate reader, dry powder, SA11, cytotoxicity control for PAX8 inhibitor project, dose response (AID 743150). In kind it is functional, cell-based. The conditions noted are these: OVCAR-4.
Experiment [7] can be described thus: OVCAR-3 cell viability loss – plate reader, dry powder samples, PAX8 inhibitor project, dose response (AID 743044). The experiment is classed as functional, cell-based.
The nature of experiment [8]: PAX5 cellular inhibition readout – cell-based, plate reader, dry powder samples, selectivity assay for PAX8 inhibitor project, dose response (AID 743047).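 Note: HEK293 cells carrying a Pax5 driven CD19 promoter luciferase reporter; potency of inhibitors that lower reporter luminescence.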 In kind it is functional.
For the next experiment, the target named is Paired box protein Pax-8 (Homo sapiens, UniProt Q06710). Nature of the experiment: PAX8 transcriptional activity inhibition in RMG-I – RMG-I cells, luciferase, cherry-pick, dose response (AID 687027).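 Note: luciferase reporter driven by Pax8 target thyroperoxidase promoter measured by SteadyGlo luminescence.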 In kind it is functional, cell-based.
Paired box protein Pax-8, sequence (Q06710 whole entry): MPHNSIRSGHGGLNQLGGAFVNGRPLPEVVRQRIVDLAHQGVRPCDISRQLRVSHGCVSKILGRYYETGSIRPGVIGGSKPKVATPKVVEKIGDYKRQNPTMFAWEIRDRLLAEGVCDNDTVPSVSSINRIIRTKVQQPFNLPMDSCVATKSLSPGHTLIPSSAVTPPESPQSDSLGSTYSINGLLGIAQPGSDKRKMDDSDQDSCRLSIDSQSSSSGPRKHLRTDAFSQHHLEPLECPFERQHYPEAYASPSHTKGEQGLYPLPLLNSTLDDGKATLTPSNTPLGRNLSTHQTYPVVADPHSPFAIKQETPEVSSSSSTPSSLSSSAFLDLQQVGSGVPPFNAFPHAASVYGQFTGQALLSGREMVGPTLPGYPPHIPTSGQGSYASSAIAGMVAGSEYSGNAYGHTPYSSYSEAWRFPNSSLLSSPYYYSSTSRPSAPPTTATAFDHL
A short description of experiment [9]: general mammalian cell viability loss – inhibitor set, cherry-pick, set 2, cytotoxicity control for miR-122 modulator project, dose response (AID 720697). In kind it is functional, cell-based.
A short description of experiment [10]: viability loss in A549 lung cells – cell-based, 24 h, CellTiter-Glo luminescence, cherry-picks, cytotoxicity control, dose response (AID 1053115). In kind it is functional. The conditions noted are these: A549, 24 h. Background: In ATP-based viability assays light output follows the ATP content of the culture.
The nature of experiment [11]: toxicity toward immortalized ovarian surface epithelium – cell-based, plate reader, dry powder samples, cytotoxicity control for PAX8 inhibitor project, dose response (AID 743045). The experiment is classed as functional.
A short description of experiment [12]: OVCAR8 cell viability loss – plate reader, dry powder samples, PAX8 project, dose response (AID 743197). The experiment is classed as functional, cell-based. The conditions noted are these: OVCAR-8.
Experiment [13] can be described thus: lung carcinoma cell viability loss – CellTiter-Glo luminescence, dry powder, set 17, dose response (AID 1117284). The experiment is classed as functional, cell-based. As to conditions: A549.
A short description of experiment [14]: general mammalian cell viability loss – activator set, cherry-pick, cytotoxicity control for miR-122 modulator project, dose response (AID 720690).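 Note: HEK293T human cells scored for general mammalian cytotoxicity.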 In kind it is functional, cell-based.
Experiment [15] is described as follows: anti-trypanosomal activity in BESM host cells – imaging, CA-I/72 strain, bovine embryo skeletal muscle, dry powder, dose response (AID 651885). In kind it is functional, cell-based.
Experiment [16] is described as follows: Trypanosoma cruzi replication inhibitors in host cells – cell-based, plate reader, dry powder samples, dose response (AID 651845). The experiment is classed as functional.
Experiment [17] in a line: T. cruzi growth inhibition in host cells, dose response, cell-based, plate reader, dry powder, set 2 (AID 652275). The experiment is classed as functional.
Experiment [18] in a line: Dd2 malaria parasite growth inhibition potency – SYBR Green, dry powder samples, dose response (AID 1159566).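 Note: potency for growth inhibition with lower SYBR green DNA signal.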 The experiment is classed as functional, cell-based.
Experiment [19] can be described thus: Plasmodium falciparum Dd2 Sybr green parasite growth Measured in Cell-Based and Microorganism Combination System Using Plate Reader - 2153-01_Inhibitor_Dose_DryPowder_Activity_Set3. In kind it is functional.
A short description of experiment [20]: P. falciparum Dd2 growth inhibitors, dose response, SYBR Green, cherry-picked samples (AID 1159567). In kind it is functional, cell-based.
Experiment [21] is described as follows: growth inhibition of PfATP4-mutant resistant parasites – NITD609-resistant line, SYBR Green, dry powder, dose response (AID 1159571).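 Note: parasites synchronized at ring stage by sorbitol before testing.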 In kind it is functional, cell-based.
Experiment [22] in a line: Dd2 parasite growth inhibition in erythrocytes – SYBR Green, dry powder samples, set 9, dose response (AID 1159568). The experiment is classed as functional, cell-based.
Experiment [23] can be described thus: growth inhibition of yeast DHODH-expressing 3D7 parasites – SYBR Green, dry powder samples, dose response (AID 1159570).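 Note: parasite growth measured after 72 hours of compound exposure.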 In kind it is functional, cell-based.
The nature of experiment [24]: Late stage results for the probe development effort to identify inhibitors of Plasmodium falciparum gametocytes: Luminescence-based cell-based high throughput dose response assay to identify inhibitors of viability of late stage Plasmodium falciparum gametocytes. In kind it is functional.
Experiment [25] in a line: cytotoxicity toward HCT116 cells – cell-based, CellTiter-Glo luminescence, IC50, dose response (AID 1117332). The conditions noted are these: HCT-116. In kind it is functional.
A short description of experiment [26]: glucagon-like peptide-1 release potency in STC-1, concentration-response, half-maximal inhibitory concentration in the STC-1 line (AID 1117345). The experiment is classed as functional, cell-based.
Experiment [27] in a line: Potency on glucagon-like peptide 1 release, dose-response in NCI-H716 cell line, half maximal inhibitory concentration (AID 1117344). In kind it is functional, cell-based.
Experiment [28] can be described thus: RKO cell viability reduction, dose response, CellTiter-Glo luminescence (AID 1117322). In kind it is functional.
Experiment [29] can be described thus: HCT116 cell viability decrease, GSK3B pretreatment – CellTiter-Glo, IC50, dose response (AID 1117339). The experiment is classed as functional. As to conditions: HCT-116.
A short description of experiment [30]: SNU-C1 cell viability reduction, dose response, CellTiter-Glo luminescence (AID 1117323). In kind it is functional, cell-based.
Experiment [31] in a line: cytotoxicity toward HT-29 cells – cell-based, CellTiter-Glo luminescence, IC50, dose response (AID 1117330). In kind it is functional.
The nature of experiment [32]: CellTiter-Glo luminescence survival assay, SW480 colon tumor line, concentration-response curve, half-maximal inhibitory concentration (AID 1117338). The experiment is classed as functional.
The nature of experiment [33]: Reduced DLD-1 viability, concentration-response, CellTiter-Glo luminescence (AID 1117352). In kind it is functional.
Experiment [34] is described as follows: cytotoxicity toward Colo320 cells – cell-based, CellTiter-Glo luminescence, IC50, dose response (AID 1117334). The experiment is classed as functional. The conditions noted are these: COLO 320.
The next experiment in a line: cells. The experiment is classed as functional, cell-based. The conditions noted are these: INS-1E.
Experiment [35] can be described thus: IC50 of insulin release inhibition, rat insulinoma INS-1E line, 5 mM glucose, cell-based (AID 1117331). In kind it is functional.

What is called IC50 is the concentration at which inhibition is half-maximal. `CC1C(=O)NN=C1C(=O)N/N=C\C(Br)=C\c1ccccc1` (centres undefined): the half-maximal inhibitory concentration (IC50) in [1] is reported as 10.5 µM (not active).
One may read the AC50 as the midpoint of the concentration-response curve, whichever way the signal moves. For the molecule `COc1ccc(S(=O)(=O)Nc2ccc3c(c2)CC(=O)N([C@@H](C)CO)C[C@H](C)[C@@H](CN(C)Cc2ccc(C(F)(F)F)cc2)O3)cc1`, the AC50 in experiment [2] is 20 µM (active); in experiment [3] it was 3.67 µM (active); in experiment [4] it was 31.3 µM (active); in [5], > 70 µM (inactive); in experiment [6], 59.7 µM (active); in experiment [7], 49.1 µM (active). Also, the AC50 in [8] was 21.7 µM (active); at Paired box protein Pax-8 it was 6.21 µM (active).
For the molecule `C[C@H](O)C#Cc1ccc2c(c1)O[C@@H](CN(C)Cc1ccc(-c3ccccc3)cc1)[C@H](C)CN([C@H](C)CO)S2(=O)=O`, the concentration at half-maximal activity (AC50) in experiment [9] is 8.52 µM (active); in [10] it was 50.8 µM (active); in [11], 34.8 µM (active); in experiment [12] it was 44.2 µM (active); in experiment [7], 46.9 µM (active); in experiment [13] it was 26.4 µM (active). Moreover, the AC50 in [14] is 9.51 µM (active); on Paired box protein Pax-8 it was 5.27 µM (active).
Regarding `CC(C)N1C[C@H](C)[C@@H](CN(C)Cc2ccc(Oc3ccccc3)cc2)Oc2c(NC(=O)c3ccccc3)cccc2C1=O`, the IC50 in [15] was > 20 µM (inactive). For the same molecule, the AC50 in experiment [16] and in experiment [17] was 0.506 µM (active) throughout.
Regarding `CO[C@@H]1CN(C)C(=O)c2ccc(NC(=O)c3ccc4c(c3)OCO4)cc2OC[C@@H](C)N(Cc2ccc3c(c2)OCO3)C[C@H]1C`, the AC50 in experiment [18] is 0.279 µM (active); in experiment [19] it was 1.92 µM (active); in experiment [20] it was 1.11 µM (active); in experiment [21] it was 1.17 µM (active); in experiment [22] it was 1.73 µM (active); in experiment [23] it was 4.99 µM (active).
Consider `O=C(Nc1nccs1)c1cc(C2CC2)nn1-c1ccccc1`, for which the IC50 in experiment [24] was > 37.2 µM (inactive).
In the case of `Clc1ccc(C(Cn2ccnc2)OCc2c(Cl)cccc2Cl)c(Cl)c1` (centres undefined) [ISOCONAZOLE], the concentration for half-maximal inhibition (IC50) in experiment [25] is 1.59 µM (active); in [26] it was > 40 µM (inactive); in [27], > 40 µM (inactive); in experiment [28], 4.01 µM (active); in [29], 1.4 µM (active); in experiment [30], 0.886 µM (active). Besides, the IC50 was 5 µM (inactive) in experiment [31], 2.6 µM (active) in experiment [32], 2.36 µM (active) in experiment [33] and 1.82 µM (active) in [34].
In the case of `CC1CC(=O)NN=C1c1ccc(NCC(C)(C)NCC(O)COc2cc(Cl)ccc2C#N)cc1` (centres undefined) [OBERADILOL], the IC50 in the experiment “cells” is > 33.3 µM (inactive); in [35], 15.2 µM (inactive).
